From ChEMBL document CHEMBL1125732, “Synthesis and benzodiazepine binding activity of a series of novel [1,2,4]triazolo[1,5-c]quinazolin-5(6H)-ones” (J Med Chem, 1991) come the findings set out here.

Each structure is given as a SMILES string.

For assay [1], the target named is T1, GABA-A receptor; anion channel (Mus musculus) (UniProt Q8BHJ7+P26048+Q8QZW7+P50571+Q9R0Y8+P22723+A2AMW3+P62812+Q9JLF1+P26049+P22933+Q9D6F4+P63080+P27681+P16305). The assay is described as follows: In vivo percentage inhibition of flunitrazepam binding to Benzodiazepine receptor in mouse fore brain at 30 mg/Kg. It is filed as organism-based.
Assay [2] deals with GABA-A receptor; anion channel. The assay is described as follows: Binding affinity at Benzodiazepine receptor of rat forebrain by [3H]- flunitrazepam displacement.
Assay [3] concerns Rattus norvegicus. The assay is described as follows: Antagonism of Diazepam anti-convulsive effects in rats treated with metrazole ip dose at 20 mg/kg, 0/6 rats affected. It is filed as functional. Particulars: route intraperitoneal.
Assay [4] deals with Rattus norvegicus. The assay is described as follows: Antagonism of Diazepam anti-convulsive effects in rats treated with metrazole ip dose at 10 mg/kg, 0/6 rats affected. Particulars: route intraperitoneal. It is filed as functional.
Assay [5] deals with T1, GABA-A receptor; anion channel (Mus musculus). Particulars: 30 mg/kg.
Description: In vivo percentage inhibition of flunitrazepam binding to mouse fore brain at 30 mg/kg
The species named for assay [6] is Rattus norvegicus. The assay is described as follows: Antagonism of diazepam-induced discriminative stimuli in rats by peroral dose. It is filed as functional. Particulars: po.
Assay [7] relates to Rattus norvegicus. The assay is described as follows: Antagonism of Diazepam anti-convulsive effects in rats treated with metrazole ip dose at 1 mg/kg, 5/6 rats affected. It is filed as functional. Particulars: route intraperitoneal.
Assay [8] concerns Rattus norvegicus. The assay is described as follows: Antagonism of Diazepam anti-convulsive effects in rats treated with metrazole ip dose at 3mg/kg, 1/6 rats affected. It is filed as functional.
The species named for assay [9] is Rattus norvegicus. The assay is described as follows: Antagonism of diazepam-induced rotarod deficit on peroral dose in rats. It is filed as functional. As to conditions: po. In general terms: The rotarod test checks motor coordination on a turning rod.
Assay [10] concerns the target GABA-A receptor; anion channel. The assay is described as follows: Displacement of [3H]flunitrazepam from GABA-A Benzodiazepine receptor of rat forebrain.
In assay [11] the target is GABA-A receptor; anion channel. The assay is described as follows: Displacement of [3H]diazepam from GABA-A Benzodiazepine receptor of rat forebrain. For orientation: In a radioligand displacement assay an active substance lowers the binding of a labelled ligand.
The target in assay [12] is GABA-A receptor; anion channel. The assay is described as follows: Displacement of [3H]- Diazepam from GABA-A Benzodiazepine receptor of rat forebrain.
Assay [13] deals with Rattus norvegicus. The assay is described as follows: Antagonism of Diazepam anti-convulsive effects in rats treated with metrazole ip dose at 30 mg/kg, 0/6 rats affected. It is filed as functional. As to conditions: route intraperitoneal.
The subject of assay [14] is Rattus norvegicus. The assay is described as follows: Antagonism of Diazepam anti-convulsive effects in rats treated with metrazole ip dose at 0.3 mg/kg, 5/6 rats affected. It is filed as functional. As to conditions: route intraperitoneal.
Assay [15] deals with Rattus norvegicus. The assay is described as follows: Antagonism of Diazepam anti-convulsive effects in rats treated with metrazole ip dose at 1 mg/kg in rats, 1/6 rats affected. Particulars: route intraperitoneal. It is filed as functional.
Assay [16] concerns Rattus norvegicus. The assay is described as follows: Antagonism of Diazepam anti-convulsive effects in rats treated with metrazole ip dose at 3mg/kg, 2/6 rats affected. It is filed as functional.
Assay [17] concerns Rattus norvegicus. The assay is described as follows: Antagonism of diazepam-induced rotarod deficit on ip dose in rats. It is filed as functional.
The species entered for assay [18] is Rattus norvegicus. The assay is described as follows: Antagonism of diazepam-induced rotarod deficit after peroral dose in rats. It is filed as functional. As to conditions: po.
Assay [19] concerns Rattus norvegicus. The assay is described as follows: Antagonism of Diazepam anti-convulsive effects in rats treated with metrazole ip dose at 0.3mg/kg, 6/6 rats affected. It is filed as functional.
Assay [20] deals with Rattus norvegicus. The assay is described as follows: Antagonism of Diazepam anti-convulsive effects in rats treated with metrazole ip dose at 1 mg/kg, 3/6 rats affected. It is filed as functional. Particulars: route intraperitoneal.
The subject of assay [21] is Rattus norvegicus. The assay is described as follows: Antagonism of diazepam-induced discriminative stimuli in rats by ip dose. It is filed as functional.
Assay [22] concerns Rattus norvegicus. The assay is described as follows: Antagonism of Diazepam anti-convulsive effects in rats treated with metrazole ip dose at 1 mg/kg, 2/6 rats affected. It is filed as functional. As to conditions: route intraperitoneal.

What is called inhibition is the change of the read-out against control, counted positive when it falls. A high value points to a strong effect. A word on the IC50: it is the point on the concentration scale where inhibition reaches its midpoint. Broadly, the ED50 is the dose that gives a 50% effect, or the effect in half of the subjects. Low values mean an effect at a small dose, high ones a need for a large dose.

Compound `Oc1ccc(-c2nc3c4cc(Cl)ccc4nc(O)n3n2)cc1` displayed an inhibition in [1] of 0%. In assay [2], this compound gave an IC50 of 0.3 nM.

As for `O=C1C2C=Nc3ccccc3C2=NN1c1ccccc1` (centres undefined) [CGS-8216], the Antagonist effect with Rattus norvegicus [3] stood at 0; in the assay with Rattus norvegicus [4] it was 0; with Rattus norvegicus [7] it was 5; with Rattus norvegicus [8], 1. In addition, the inhibition in assay [5] was 90%. Also, the ED50 in the assay filed under Rattus norvegicus [6] was 1.61 mg/kg; in the assay listed under Rattus norvegicus [9], 0.6 mg/kg. Besides, the IC50 in [10] is 4.4 nM; in [11], 0.3 nM.

As to `Oc1nc2ccc(Cl)cc2c2nc(-c3ccc(C(F)(F)F)cc3)nn12`, the concentration for half-maximal inhibition (IC50) in assay [2] is > 1000 nM.

`Oc1nc2ccccc2c2nc(-c3cccnc3)nn12` displayed an inhibition in [1] of 48%. The compound further yielded an IC50 in assay [12] of 130 nM.

In turn, `Oc1nc2ccc(Cl)cc2c2nc(-c3ccco3)nn12` registered an inhibition in assay [1] of 15%. This compound yielded an IC50 in [2] of 0.6 nM.

Compound `Oc1nc2ccccc2c2nc(-c3ccccc3)nn12` returned an inhibition in assay [1] of 55%. Moreover, in assay [12], the IC50 came out at 4 nM.

In [1], `Oc1nc2ccccc2c2nc(-c3ccncc3)nn12` registered an inhibition of 19%.

For `Cn1c(=O)n2nc(-c3cccnc3)nc2c2ccccc21`, in assay [12], the half-inhibitory concentration (IC50) was > 10000 nM.

As to `CN1CCCC(c2nc3c4cc(Cl)ccc4nc(O)n3n2)C1` (centres undefined), the IC50 in assay [2] was > 1000 nM.

As for `Cn1c(=O)n2nc(C(F)(F)F)nc2c2ccccc21`, the IC50 in [12] was > 1000 nM.

In turn, `COc1ccc(-c2nc3c4cc(Cl)ccc4nc(O)n3n2)cc1` yielded an IC50 in [2] of 3 nM.

`Cc1ccc(-c2nc3c4cc(Cl)ccc4nc(O)n3n2)cc1` came in with an inhibition in assay [1] of 63%. The compound also returned an IC50 in assay [2] of 200 nM.

Turning to `COc1cc(-c2nc3c4cc(Cl)ccc4nc(O)n3n2)cc(OC)c1OC`, in [2], the IC50 is > 1000 nM.

For the compound `Cn1c(=O)n2nc(-c3ccccc3)nc2c2ccccc21`, the inhibition in assay [1] turned out to be 55%. Also, the IC50 in assay [12] stood at 350 nM.

`Oc1nc2ccc(Cl)cc2c2nc(Cc3ccccc3)nn12`: the inhibition in [1] worked out at 0%. The compound further showed an IC50 in [2] of 100 nM.

On to `Oc1nc2ccc(Cl)cc2c2nc(-c3ccccn3)nn12`, for which, in [12], the IC50 stood at 100 nM. In other words, the sub-micromolar range.

With `Oc1nc2ccc(Cl)cc2c2nc(-c3cccnc3)nn12`, in [1], the inhibition is 24%. Further, the IC50 in assay [12] stood at 10 nM.

The compound `CN1C(=O)CN=C(c2ccccc2F)c2cc([N+](=O)[O-])ccc21` [FLUNITRAZEPAM] displayed an IC50 in [11] of 1.5 nM.

In turn, `Oc1nc2ccccc2c2nc(-c3ccccc3F)nn12` gave an inhibition in assay [1] of 41%. This compound also had an IC50 in [2] of 0.4 nM.

In turn, `OCc1nc2c3ccccc3nc(O)n2n1` had an inhibition in [1] of 0%. For the same compound, the IC50 in [2] was > 100 nM.

`Oc1nc2c(Cl)cc(Cl)cc2c2nc(-c3ccccc3)nn12` registered an inhibition in assay [1] of 6%. For the same compound, the IC50 in assay [12] was found to be 200 nM.

The compound `Oc1nc2ccc(Cl)cc2c2nc(-c3ccc(F)cc3)nn12` yielded an inhibition in assay [1] of 52%. Also, in assay [2], the concentration for half-maximal inhibition (IC50) is 20 nM.

Compound `Oc1nc2ccc(Cl)cc2c2nc(-c3cccs3)nn12` returned an inhibition in assay [1] of 21%. The IC50 in [2] was 0.6 nM.

For the compound `Oc1nc2ccccc2c2nc(-c3ccc(Cl)cc3)nn12`, the 50% inhibitory concentration (IC50) in assay [12] is > 10000 nM.

For the compound `Oc1nc2ccc(Cl)cc2c2nc(-c3cccc(F)c3)nn12`, the Antagonist effect in the assay with Rattus norvegicus [13] is 0; in the assay on Rattus norvegicus [4], 0; in the assay on Rattus norvegicus [14] it was 5; with Rattus norvegicus [15], 1; with Rattus norvegicus [16], 2. In assay [1], this compound displayed an inhibition of 31%. In assay [2], the IC50 is 4 nM. Further, the ED50 in the assay with Rattus norvegicus [17] is > 30 mg/kg.

On to `CCOc1nc2c3ccccc3nc(O)n2n1`, for which the inhibition in assay [1] is 0%. In assay [2], this compound came in with an IC50 of 2.5 nM.

Regarding `O=c1[nH]c2ccccc2c2nc(-c3ccncc3)nn12`, in assay [12], the IC50 was found to be 200 nM.

For `Oc1nc2ccc(Cl)cc2c2nc(-c3ccccc3)nn12`, the ED50 in the assay listed under Rattus norvegicus [18] was found to be 2.8 mg/kg; in the assay with Rattus norvegicus [17], 26 mg/kg. In addition, the Antagonist effect with Rattus norvegicus [13] was determined as 0; in the assay with Rattus norvegicus [4], 0; in the assay on Rattus norvegicus [16], 2; with Rattus norvegicus [19], 6; in the assay on Rattus norvegicus [20], 3. In assay [1], this compound returned an inhibition of 72%. The IC50 in [2] is 8 nM.

For the compound `Oc1nc2ccc(Cl)cc2c2nc(-c3ccoc3)nn12`, the IC50 in [2] was 3.5 nM. This counts as single-digit nanomolar.

Consider `Oc1nc2ccccc2c2nc(C(F)(F)F)nn12`, for which, in assay [12], the IC50 was > 1000 nM.

Take `Oc1nc2ccc(Cl)cc2c2nc(C3CCCO3)nn12` (centres undefined): the IC50 in assay [2] is > 100 nM.

As for `Oc1nc2ccc(Cl)cc2c2nc(-c3ccccc3F)nn12`, the ED50 in the assay listed under Rattus norvegicus [18] came out at 5.5 mg/kg; in the assay with Rattus norvegicus [21] it was 2.99 mg/kg; in the assay listed under Rattus norvegicus [6] it was 6.51 mg/kg; in the assay with Rattus norvegicus [17], 6.92 mg/kg. In addition, the Antagonist effect stood at 0 in the assay on Rattus norvegicus [13]; 0 in the assay with Rattus norvegicus [4]; 2 in the assay with Rattus norvegicus [16]; 6 in the assay on Rattus norvegicus [19]; 2 in the assay on Rattus norvegicus [22]. Moreover, the inhibition in [1] is 76%. In [2], this compound gave an IC50 of 0.4 nM.
